According to patent US11673889B2, “Substituted imidazo[4,5-c][1,8]naphthyridines as phosphodiesterase inhibitors” (Nanjing Zhengxiang Pharmaceuticals Co., Ltd., priority 2019, dated 2023):
One block for each molecule: values may come before it.

Columns and labels:
[1] = molecular target: T1, human soluble ENPP1 (Homo sapiens, UniProt P22413); assay: ENPP1 activity assay using p-Nitrophenyl-5′-TMP as a substrate; format: biochemical
T1 construct: 20 ng of human soluble ENPP1
T1 sequence (P22413 103-925 limits assumed): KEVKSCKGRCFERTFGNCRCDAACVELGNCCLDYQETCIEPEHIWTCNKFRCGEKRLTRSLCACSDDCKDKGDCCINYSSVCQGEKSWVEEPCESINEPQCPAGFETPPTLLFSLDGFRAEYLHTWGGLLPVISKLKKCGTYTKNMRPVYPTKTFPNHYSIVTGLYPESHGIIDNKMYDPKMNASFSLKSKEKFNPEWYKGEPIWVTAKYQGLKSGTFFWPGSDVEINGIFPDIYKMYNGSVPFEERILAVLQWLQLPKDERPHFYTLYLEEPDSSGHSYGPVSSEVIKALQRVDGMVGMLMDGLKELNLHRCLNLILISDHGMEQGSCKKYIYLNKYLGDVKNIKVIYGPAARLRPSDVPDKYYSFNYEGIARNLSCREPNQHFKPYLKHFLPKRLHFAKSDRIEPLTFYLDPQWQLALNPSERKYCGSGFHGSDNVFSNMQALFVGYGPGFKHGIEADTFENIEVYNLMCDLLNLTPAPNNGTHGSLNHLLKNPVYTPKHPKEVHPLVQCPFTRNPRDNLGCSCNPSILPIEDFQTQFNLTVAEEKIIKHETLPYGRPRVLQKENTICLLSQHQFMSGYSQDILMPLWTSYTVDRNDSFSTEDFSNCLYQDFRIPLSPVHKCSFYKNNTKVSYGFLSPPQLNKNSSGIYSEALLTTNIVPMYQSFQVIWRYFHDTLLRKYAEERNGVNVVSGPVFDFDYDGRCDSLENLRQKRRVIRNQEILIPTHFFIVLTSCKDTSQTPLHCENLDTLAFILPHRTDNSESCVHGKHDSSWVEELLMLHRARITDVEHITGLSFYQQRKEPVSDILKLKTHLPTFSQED
Method: ENPP1 is a transmembrane glycoprotein that hydrolyzes nucleotides and nucleotide derivatives with the formation of nucleotide-5′-monophosphates. ENPP1 hydrolyzes artificial phosphoric acid ester thymidine 5′monophosphate p-nitrophenyl ester (TMP-pNP) to nucleotide-5′-monophosphate and p-nitrophenol, which is a chromogenic product.
Load into a well with 20 ng of human soluble ENPP1 in 50 μL and incubate at room temperature with 25 μL inhibitor solution (4× Final Concentration) for 30 mins. Then, add 25 μL 2 mM TMP solution (2× Final Concentration) into the well, Incubate at RT for 1 hour.
(§1) The percent inhibition at each compound is calculated as follows: % inhibition=(ODMAX−ODCOMPOUND)/(ODMAX−ODMIN)*100. (MAX: absence of ENPP1 inhibitors control, MIN: blank control.)
The IC50 values for percent inhibition versus compound concentration were determined by fitting the inhibition curves using a four-parameter variable slope model in GraphPad Prism® 8.

[2] = molecular target: T1, human soluble ENPP1; assay: ENPP1 activity assay using p-Nitrophenyl-5′-AMP as a substrate; format: biochemical
Method: AMP-pNP can be used as substrate of ENPP-1. Its hydrolysis products were nucleotide-5′-monophosphate and p-nitrophcnol, which is also a chromogenic product. The amount of p-nitrophenol product formed is measured using its absorbance at 405 nm, which is directly proportional to enzyme activity.
Load into a well with […] of human soluble ENPP1 in 50 μL and incubate at room temperature with 25 μL inhibitor solution (4× Final Concentration) for 30 mins prior adding 25 μL 3 mM AMP solution (2× Final Concentration) into the well, Incubate at RT for 1 hour. The amounts of released p-nitrophenolate were measured by reading OD value at 405 nm.
as §1
(§2) The IC50 values for percent inhibition versus compound concentration are determined by fitting the inhibition curves using a four-parameter variable slope model in GraphPad Prism® 8.

[3] = molecular target: T2, ENPP-1, MDA-MB-231 cells (Homo sapiens, UniProt P22413); assay: cell-based; conditions: for inhibition at 20 µM: MDA-MB-231, read-out: % Inhibition (at 20 μM)
T2 sequence (P22413 1-925): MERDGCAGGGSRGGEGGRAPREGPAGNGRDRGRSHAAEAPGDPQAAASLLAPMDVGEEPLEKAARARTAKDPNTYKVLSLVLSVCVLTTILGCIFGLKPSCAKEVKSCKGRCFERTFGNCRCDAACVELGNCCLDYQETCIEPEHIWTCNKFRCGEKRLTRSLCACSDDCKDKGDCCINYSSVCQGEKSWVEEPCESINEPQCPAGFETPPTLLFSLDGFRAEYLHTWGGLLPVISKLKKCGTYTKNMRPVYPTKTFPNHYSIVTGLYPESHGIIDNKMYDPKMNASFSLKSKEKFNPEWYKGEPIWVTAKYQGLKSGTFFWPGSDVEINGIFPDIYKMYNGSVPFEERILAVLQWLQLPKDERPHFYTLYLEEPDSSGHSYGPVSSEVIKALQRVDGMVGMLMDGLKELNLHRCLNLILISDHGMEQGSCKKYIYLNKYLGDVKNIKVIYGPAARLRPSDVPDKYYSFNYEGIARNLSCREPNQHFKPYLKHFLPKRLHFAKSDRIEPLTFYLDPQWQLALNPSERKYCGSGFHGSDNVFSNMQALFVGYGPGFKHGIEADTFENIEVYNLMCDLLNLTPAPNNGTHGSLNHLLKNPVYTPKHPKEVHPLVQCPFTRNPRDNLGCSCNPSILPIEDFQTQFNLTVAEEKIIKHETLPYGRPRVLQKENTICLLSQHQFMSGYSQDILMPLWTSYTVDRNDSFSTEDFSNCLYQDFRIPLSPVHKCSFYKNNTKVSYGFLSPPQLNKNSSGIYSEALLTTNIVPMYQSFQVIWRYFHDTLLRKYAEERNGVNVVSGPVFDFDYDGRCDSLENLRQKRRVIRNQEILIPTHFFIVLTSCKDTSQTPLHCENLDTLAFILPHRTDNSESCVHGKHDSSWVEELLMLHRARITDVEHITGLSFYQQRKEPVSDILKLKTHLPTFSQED
Method: ENPP-1 were mainly expressed on the surface of cell membrane where it hydrolytes 2′3′-cGAMP to generate 5′-GMP and 5′-AMP. ENPP-1 also has the ability to hydrolyzes artificial phosphoric acid ester TMP-pNP to nucleotide-5′-monophosphate and p-nitrophcnol there, which is a chromogenic product.
8 point of different concentrations of each inhibitor were prepared with the final assay concentrations starting at 20 μM. 3× series dilution by DMEM medium without FBS was applied. Prior to adding inhibitors, 75000 cells per well were incubated at 37° C., 5% CO2 in DMEM for 24 hours. After removing the supernatant medium, 50 μL inhibitor solution was added into each well with cultured cells and incubate at 37° C., 5% CO2 for 60 minutes.
as §2

[4] = substrate TMP-pNP, 20 ng human soluble ENPP1, Tris buffer pH 9.5, read-out: TMP-pNP (IC50)

Compound: COc1ccc2c(ncc3nc(C)n(Cc4ccc(S(=O)(=O)NC(C)=O)c(F)c4)c32)n1 [Compound 76, N-((2-fluoro-4-((7-methoxy-2-methyl-1H-imidazo[4,5-c][1,8]naphthyridin-1-yl)methyl)phenyl)sulfonyl)acetamide]
IC50 [1, 4]: 13 nM
IC50 [2]: 26 nM
IC50 [3]: 6900 nM
inhibition at 20 µM [3]: 51%

Compound: COCc1nc2cnc3nc(OC)ccc3c2n1Cc1ccc(S(N)(=O)=O)c(F)c1 [Compound 79, 2-fluoro-4-((7-methoxy-2-(methoxymethyl)-1H-imidazo[4,5-c][1,8]naphthyridin-1-yl)methyl)benzenesulfonamide]
IC50 [1]: 2.1 nM
IC50 [2]: 9.2 nM
IC50 [3]: 1900 nM
inhibition at 20 µM [3]: 74%

Compound: COc1ccc2c(ncc3[nH]c(=O)n(Cc4ccc(S(N)(=O)=O)nc4)c32)n1 [Compound 96, 5-((7-methoxy-2-oxo-2,3-dihydro-1H-imidazo[4,5-c][1,8]naphthyridin-1-yl)methyl)pyridine-2-sulfonamide]
IC50 [1, 4]: 1.7 nM
IC50 [2]: 5.4 nM
IC50 [3]: 11000 nM
inhibition at 20 µM [3]: 57%

Compound: COc1ccc2c(ncc3[nH]c(=O)n(Cc4c(F)cc(P(=O)(O)O)cc4F)c32)n1 [Compound 124, (3,5-difluoro-4-((7-methoxy-2-oxo-2,3-dihydro-1H-imidazo[4,5-c][1,8]naphthyridin-1-yl)methyl)phenyl)phosphonic acid]
IC50 [1]: 19 nM
IC50 [2]: 56 nM
IC50 [3]: 9.6 nM
inhibition at 20 µM [3]: 86%

Compound: COC(=O)Cc1nc2cnc3nc(OC)ccc3c2n1Cc1ccc(S(N)(=O)=O)c(F)c1 [Compound 83, methyl 2-(1-(3-fluoro-4-sulfamoylbenzyl)-7-methoxy-1H-imidazo[4,5-c][1,8]naphthyridin-2-yl)acetate]
IC50 [1]: 3.2 nM
IC50 [2]: 7.7 nM
IC50 [3]: 1200 nM
inhibition at 20 µM [3]: 83%

Compound: COCCc1nc2c(C)nc3nc(OC)ccc3c2n1Cc1cc(F)c(S(N)(=O)=O)cc1F [Compound 93, 2,5-difluoro-4-((7-methoxy-2-(2-methoxyethyl)-4-methyl-1H-imidazo[4,5-c][1,8]naphthyridin-1-yl)methyl)benzenesulfonamide]
IC50 [1]: 3.7 nM
IC50 [2]: 13 nM
IC50 [3]: 2200 nM
inhibition at 20 µM [3]: 74%

Compound: COc1ccc2c(ncc3nc(C4CNC4)n(Cc4ccc(S(N)(=O)=O)c(F)c4)c32)n1 [Compound 85, 4-((2-(azetidin-3-yl)-7-methoxy-1H-imidazo[4,5-c][1,8]naphthyridin-1-yl)methyl)-2-fluorobenzenesulfonamide]
IC50 [1]: 2 nM
IC50 [2]: 5.2 nM
IC50 [3]: 900 nM
inhibition at 20 µM [3]: 79%

Compound: COc1ccc2c(ncc3ncn(Cc4ccc(S(N)(=O)=O)c(OC(F)(F)F)c4)c32)n1 [Compound 66, 4-((7-methoxy-1H-imidazo[4,5-c][1,8]naphthyridin-1-yl)methyl)-2-(trifluoromethoxy)benzenesulfonamide]
IC50 [1]: 3 nM
IC50 [2]: 13 nM
IC50 [3]: 3400 nM
inhibition at 20 µM [3]: 71%

These reach a lower IC50 [2]. Values come first.

IC50 [1, 4]: 1.4 nM
IC50 [2]: 4.6 nM
IC50 [3]: 1400 nM
inhibition at 20 µM [3]: 75%
Compound: COc1ccc2c(ncc3[nH]c(=O)n(Cc4ccc(S(N)(=O)=O)c(F)c4F)c32)n1 [Compound 95, 2,3-difluoro-4-((7-methoxy-2-oxo-2,3-dihydro-1H-imidazo[4,5-c][1,8]naphthyridin-1-yl)methyl)benzenesulfonamide]

IC50 [1, 4]: 0.6 nM
IC50 [2]: 2.6 nM
IC50 [3]: 150 nM
inhibition at 20 µM [3]: 86%
Compound: COc1ccc2c(ncc3[nH]c(=O)n(Cc4c(F)cc(C(=O)NO)cc4F)c32)n1 [Compound 110, 3,5-difluoro-N-hydroxy-4-((7-methoxy-2-oxo-2,3-dihydro-1H-imidazo[4,5-c][1,8]naphthyridin-1-yl)methyl)benzamide]

IC50 [1]: 0.38 nM
IC50 [2]: 1.8 nM
IC50 [3]: 1800 nM
inhibition at 20 µM [3]: 68%
Compound: COc1ccc2c(ncc3cnn(Cc4ccc(S(N)(=O)=O)cc4)c32)n1 [Compound 116, 4-((7-methoxy-1H-pyrazolo[4,3-c][1,8]naphthyridin-1-yl)methyl)benzenesulfonamide]

IC50 [1]: 0.53 nM
IC50 [2]: 1.8 nM
IC50 [3]: 900 nM
inhibition at 20 µM [3]: 82%
Compound: COc1ccc2c(ncc3ncn([C@H](C)c4ccc(S(N)(=O)=O)cc4)c32)n1 [Compound 54, (R)-4-(1-(7-methoxy-1H-imidazo[4,5-c][1,8]naphthyridin-1-yl)ethyl)benzenesulfonamide]

IC50 [1, 4]: 0.49 nM
IC50 [2]: 1.7 nM
IC50 [3]: 610 nM
inhibition at 20 µM [3]: 86%
Compound: COc1ccc2c(ncc3ncn(Cc4ccc(S(N)(=O)=O)cc4Br)c32)n1 [Compound 68, 3-bromo-4-((7-methoxy-1H-imidazo[4,5-c][1,8]naphthyridin-1-yl)methyl)benzenesulfonamide]

IC50 [1, 4]: 0.11 nM
IC50 [2]: 0.32 nM
IC50 [3]: 56 nM
inhibition at 20 µM [3]: 78%
Compound: COc1ccc2c(ncc3c2n(Cc2c(F)cc(S(N)(=O)=O)cc2F)c(=O)n3CCO)n1 [Compound 115, 3,5-difluoro-4-((3-(2-hydroxyethyl)-7-methoxy-2-oxo-2,3-dihydro-1H-imidazo[4,5-c][1,8]naphthyridin-1-yl)methyl)benzenesulfonamide]

IC50 [1, 4]: 0.04 nM
IC50 [2]: 0.19 nM
IC50 [3]: 80 nM
inhibition at 20 µM [3]: 88%
Compound: COc1ccc2c(ncc3c2n(Cc2c(F)cc(S(N)(=O)=O)cc2F)c(=O)n3CC(F)(F)F)n1 [Compound 131, 3,5-difluoro-4-((7-methoxy-2-oxo-3-(2,2,2-trifluoroethyl)-2,3-dihydro-1H-imidazo[4,5-c][1,8]naphthyridin-1-yl)methyl)benzenesulfonamide]
